Data: patent US6215002A, “Pyrrolopyrrolone derivatives as inhibitors of neutrophil elastase” (priority 1996, dated 2001)
Structures can show the parent of a compound that is named as a salt.

Legend:
[1] = test system: Intracellular elastase; assay: Oral in vivo model using IL-8 induced lung infiltrates for the assessment of intracellular elastase inhibition (hamster test); conditions: effective dose of less than 40 mg/kg, IL-8 intratracheal
Method in brief: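 Fasted adult hamsters (n=4) given compound orally in water, with intratracheal 1 ug recombinant human IL-8; sacrificed 6 h later. Neutrophils from lung lavage and femoral bone marrow sonicated, granules disrupted, and elastase measured, with myeloperoxidase used to normalise for neutrophil recovery.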

[2] = biological target: T1, human neutrophil elastase (Homo sapiens, UniProt P08246); assay: In vitro assay of human neutrophil elastase (HNE); format: biochemical; conditions: 118 nM purified human neutrophil elastase, pH 8.6, 15 min incubation at 30° C., MeO-succinyl-alanyl-alanyl-prolyl-valyl-p-nitroanilide substrate; read-out: HNE IC50
T1 sequence (P08246 30-267): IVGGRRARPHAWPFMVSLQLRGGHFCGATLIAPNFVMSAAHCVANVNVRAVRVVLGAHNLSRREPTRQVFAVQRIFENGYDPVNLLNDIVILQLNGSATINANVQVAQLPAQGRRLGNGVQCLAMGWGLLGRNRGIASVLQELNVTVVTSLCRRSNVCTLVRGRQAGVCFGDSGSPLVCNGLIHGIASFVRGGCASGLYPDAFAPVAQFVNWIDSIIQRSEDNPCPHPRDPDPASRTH
Method in brief: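 Residual activity was taken as the 10 min rate of absorbance rise at 405 nm after adding 0.6 mM MeO-succinyl-AAPV-p-nitroanilide. Curve fitting of activity against concentration gave IC50.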

| SMILES | duration of effect [1] | IC50 [2] [nM] |
| --- | --- | --- |
| CC(C)[C@H]1C(=O)N(S(C)(=O)=O)[C@H]2CCN(C(=O)c3ccc(CN4CCNCC4)cc3)[C@H]12.Cl.Cl (relative stereo) [Example 188, rel-(3R,3aR,6aS)-3-Isopropyl-1-methanesulfonyl-4-(4-piperazin-1-ylmethyl-benzoyl)-hexahydro-pyrrolo[3,2-b]pyrrol-2-one dihydrochloride] | at least 6 hours | 67 |
| CC(C)[C@H]1C(=O)N(S(C)(=O)=O)[C@H]2CCN(C(=O)/C=C/CN(C(C)C)C(C)C)[C@H]12.Cl (relative stereo) [Example 144, rel-(3R,3aR,6aS)-4-(4-Diisopropylamino-but-2E-enoyl)-3-isopropyl-1-methanesulfonyl-hexahydro-pyrrolo[3,2-b]pyrrol-2-one hydrochloride] | at least 6 hours | 71 |
| CC(C)[C@H]1C(=O)N(S(C)(=O)=O)[C@H]2CCN(C(=O)c3ccc(CN(C)C)cc3)[C@H]12.Cl (relative stereo) [Example 175, rel-(3R,3aR,6aS)-4-(4-Dimethylaminomethyl-benzoyl)-3-isopropyl-1-methanesulfonyl-hexahydro-pyrrolo[3,2-b]pyrrol-2-one hydrochloride] | at least 6 hours | 74 |
| CC(C)[C@H]1C(=O)N(S(C)(=O)=O)[C@H]2CCN(C(=O)c3ccc(CN(C(C)C)C(C)C)cc3)[C@H]12 (relative stereo) [Example 201, rel-(3R,3aR,6aS)-4-{4-(Diisopropylamino)-methy]benzoyl}3-isopropyl-1-methanesulfonyl-hexahydro-pyrrolo[3,2-b]pyrrol-2-one hydrochloride] | at least 6 hours | 46 |
| CC(C)[C@H]1C(=O)N(S(C)(=O)=O)[C@H]2CCN(C(=O)CCN3CCCCC3)[C@H]12 (relative stereo) [Example 61, rel-(3R,3aR,6aS)-3-isopropyl-1-methanesulfonyl-4-(3-piperidin-1yl-propionyl-hexahydro-pyrrolo[3,2-b]pyrrol-2-one hydrochloride] | at least 6 hours | 242 |
| CC(C)[C@H]1C(=O)N(S(C)(=O)=O)[C@H]2CCN(C(=O)/C=C/CN(C)C)[C@H]12.Cl (relative stereo) [Example 148, rel-(3R,3aR,6aS)-4-(4-Dimethylamino-but-2E-enoyl)-3-isopropyl-1-methanesulfonyl-hexahydro-pyrrolo[3,2-b]pyrrol-2-one hydrochloride] | at least 6 hours | 35 |
| CC(C)NC/C=C/C(=O)N1CC[C@H]2[C@H]1[C@@H](C(C)C)C(=O)N2S(C)(=O)=O.Cl (relative stereo) [Example 151, rel-(3R,3aR,6aS)-3-Isopropyl-4-(4-isopropylamino-but-2E-enoyl)-1-methanesulfonyl-hexahydro-pyrrolo[3,2-b]pyrrol-2-one hydrochloride] | at least 6 hours | 85 |
